Source: patent US8957108B2, “Use of 5,6-dimethylxanthenone-4-acetic acid as an antiviral agent” (University of Maryland, Baltimore, priority 2006, dated 2015)
In brackets after ≈: the same amount, converted by molar mass.

Tests used:
[1] = test system: Influenza/A/Wuhan; assay: Assay of indirect inhibition of viral infection (influenza, MDCK cells, CPE); conditions: CPE of influenza virus on MDCK cells
[2] = test system: Influenza/A/Wuhan; assay: Assay of direct inhibition of viral infection (influenza, MDCK cells, CPE); assay type: cell-based; conditions: CPE of influenza virus on MDCK cells; read-out: IC50 direct antiviral activity
Description: Influenza at 10^3 TCID50 was added in 50 μl volumes to all wells and incubated at room temperature for 1 h. The mixture was inoculated onto MDCK cells on 96-well plates. Tamiflu (1.75 mg/ml) and Relenza (0.5 mg/ml) were used as a positive control for the assay.

[3] = test system: IFN-β−/− macrophages
[4] = IFN-β-deficient cells, DMXAA 3 h vs unstimulated wild-type cells

Compound: Cc1ccc2c(=O)c3cccc(CC(=O)O)c3oc2c1C [DMXAA, 5,6-dimethylxanthenone-4-acetic acid]
- IC50 indirect antiviral activity [1]: 2.0 µg/mL (≈ 7.08 µM)
- IC50 [2]: 5 µg/mL (≈ 17.7 µM)
- CYP1A2 Fold Change: IFNβ−/− [3]: 3.9 fold
- CYP1B1 Fold Change: IFNβ−/− [3]: 5.9 fold
- 2310043N10RIK Fold Change: IFNβ−/− [3, 4]: 2.2 fold
- 5830484A20RIK Fold Change: IFNβ−/− [3, 4]: 4.0 fold
- ABCB1 Fold Change: IFNβ−/− [3, 4]: 7.1 fold
- ABL1 Fold Change: IFNβ−/− [3, 4]: 1.5 fold
- ABLIM1 Fold Change: IFNβ−/− [3, 4]: 1.4 fold
- ACVR1B Fold Change: IFNβ−/− [3, 4]: 2.3 fold
- ADRB2 Fold Change: IFNβ−/− [3, 4]: 1.7 fold
- AFTIPHILIN Fold Change: IFNβ−/− [3, 4]: 1.2 fold
- AKAP12 Fold Change: IFNβ−/− [3, 4]: 1.5 fold
- AMPD3 Fold Change: IFNβ−/− [3, 4]: 2.7 fold
- AP2A2 Fold Change: IFNβ−/− [3, 4]: 8.8 fold
- APBB1IP Fold Change: IFNβ−/− [3, 4]: 1.8 fold
- APOBEC3F Fold Change: IFNβ−/− [3, 4]: 1.4 fold
- ARHGEF3 Fold Change: IFNβ−/− [3, 4]: 2.1 fold
- ARID3A Fold Change: IFNβ−/− [3, 4]: 2.5 fold
- ARL4C Fold Change: IFNβ−/− [3, 4]: 5.5 fold
- ASF1A Fold Change: IFNβ−/− [3, 4]: 2.1 fold
- ATRX Fold Change: IFNβ−/− [3, 4]: 2.6 fold
- B3GAT3 Fold Change: IFNβ−/− [3, 4]: 1.6 fold
- BACE1 Fold Change: IFNβ−/− [3, 4]: 3.7 fold
- BAMBI Fold Change: IFNβ−/− [3, 4]: 1.5 fold
- BCL2 Fold Change: IFNβ−/− [3, 4]: 1.4 fold
- BCL2L1 Fold Change: IFNβ−/− [3, 4]: 2.3 fold
- BHLHB2 Fold Change: IFNβ−/− [3, 4]: 1.3 fold
- BID Fold Change: IFNβ−/− [3, 4]: 2.9 fold
- C8ORF4 Fold Change: IFNβ−/− [3, 4]: 4.1 fold
- C9ORF26 Fold Change: IFNβ−/− [3, 4]: 4.4 fold
- CCL2 Fold Change: IFNβ−/− [3, 4]: 5.8 fold
- CCL3 Fold Change: IFNβ−/− [3, 4]: 1.4 fold
- CCL4 Fold Change: IFNβ−/− [3, 4]: 8.1 fold
- CCL5 Fold Change: IFNβ−/− [3, 4]: 3.7 fold
- CCL7 Fold Change: IFNβ−/− [3, 4]: 2.9 fold
- CCL13 Fold Change: IFNβ−/− [3, 4]: 5.8 fold
- CCND2 Fold Change: IFNβ−/− [3, 4]: 2.0 fold
- CCNE1 Fold Change: IFNβ−/− [3, 4]: 2.9 fold
- CCNF Fold Change: IFNβ−/− [3, 4]: 2.4 fold
- CCRN4L Fold Change: IFNβ−/− [3, 4]: 1.6 fold
- CD37 Fold Change: IFNβ−/− [3, 4]: 1.1 fold
- CD40 Fold Change: IFNβ−/− [3, 4]: 1.3 fold
- CD86 Fold Change: IFNβ−/− [3, 4]: 6.0 fold
- CD274 Fold Change: IFNβ−/− [3, 4]: 1.0 fold
- CDC6 Fold Change: IFNβ−/− [3, 4]: 3.2 fold
- CDC7 Fold Change: IFNβ−/− [3, 4]: 1.6 fold
- CDC37L1 Fold Change: IFNβ−/− [3, 4]: 2.2 fold
- CDKN1A Fold Change: IFNβ−/− [3, 4]: 1.1 fold
- CEBPB Fold Change: IFNβ−/− [3, 4]: 1.9 fold
- CITED2 Fold Change: IFNβ−/− [3, 4]: 1.5 fold
- CLCA1 Fold Change: IFNβ−/− [3, 4]: 1.9 fold
- CNR2 Fold Change: IFNβ−/− [3, 4]: 2.3 fold
- CREBBP Fold Change: IFNβ−/− [3, 4]: 6.3 fold
- CXCL10 Fold Change: IFNβ−/− [3, 4]: 21.2 fold
- DAXX Fold Change: IFNβ−/− [3, 4]: 1.6 fold
- DSCR1 Fold Change: IFNβ−/− [3, 4]: 2.7 fold
- FGD6 Fold Change: IFNβ−/− [3, 4]: 2.0 fold
- FGL2 Fold Change: IFNβ−/− [3, 4]: 3.6 fold
- GBP2 Fold Change: IFNβ−/− [3, 4]: 1.6 fold
- GBP4 Fold Change: IFNβ−/− [3, 4]: 4.6 fold
- GBP6 Fold Change: IFNβ−/− [3, 4]: 6.8 fold
- GYPC Fold Change: IFNβ−/− [3, 4]: 4.4 fold
- IFI16 Fold Change: IFNβ−/− [3, 4]: 2.7 fold
- IFI35 Fold Change: IFNβ−/− [3, 4]: 1.1 fold
- IFI203 Fold Change: IFNβ−/− [3, 4]: 3.4 fold
- IFI205 Fold Change: IFNβ−/− [3, 4]: 1.8 fold
- IFIH1 Fold Change: IFNβ−/− [3, 4]: 7.0 fold
- IFIT1 Fold Change: IFNβ−/− [3, 4]: 22.2 fold
- IFIT2 Fold Change: IFNβ−/− [3, 4]: 14.3 fold
- IFIT3 Fold Change: IFNβ−/− [3, 4]: 10.5 fold
- IFNA5 Fold Change: IFNβ−/− [3, 4]: 2.5 fold
- IFNA6 Fold Change: IFNβ−/− [3, 4]: 9.1 fold
- IFNB1 Fold Change: IFNβ−/− [3, 4]: 1.1 fold
- IFNG Fold Change: IFNβ−/− [3, 4]: 59.4 fold
- IGTP Fold Change: IFNβ−/− [3, 4]: 1.2 fold
- IIGP1 Fold Change: IFNβ−/− [3, 4]: 1.2 fold
- IL6 Fold Change: IFNβ−/− [3, 4]: 13.5 fold
- IL12B Fold Change: IFNβ−/− [3, 4]: 1.4 fold
- IL15 Fold Change: IFNβ−/− [3, 4]: 1.7 fold
- IL15RA Fold Change: IFNβ−/− [3, 4]: 3.3 fold
- IRF1 Fold Change: IFNβ−/− [3, 4]: 1.2 fold
- IRF2 Fold Change: IFNβ−/− [3, 4]: 1.2 fold
- IRGM Fold Change: IFNβ−/− [3, 4]: 2.3 fold
- ISG20 Fold Change: IFNβ−/− [3, 4]: 3.4 fold
- KATNA1 Fold Change: IFNβ−/− [3, 4]: 1.5 fold
- LGP2 Fold Change: IFNβ−/− [3, 4]: 2.7 fold
- LHX2 Fold Change: IFNβ−/− [3, 4]: 7.8 fold
- LOC129607 Fold Change: IFNβ−/− [3, 4]: 7.8 fold
- MAFK Fold Change: IFNβ−/− [3, 4]: 1.6 fold
- MARCH5 Fold Change: IFNβ−/− [3, 4]: 1.9 fold
- MOV10 Fold Change: IFNβ−/− [3, 4]: 1.2 fold
- MX1 Fold Change: IFNβ−/− [3, 4]: 9.3 fold
- MX2 Fold Change: IFNβ−/− [3, 4]: 1.1 fold
- NMI Fold Change: IFNβ−/− [3, 4]: 1.6 fold
- NP Fold Change: IFNβ−/− [3, 4]: 1.7 fold
- NT5C3 Fold Change: IFNβ−/− [3, 4]: 1.8 fold
- OAS1B Fold Change: IFNβ−/− [3, 4]: 2.1 fold
- OASL Fold Change: IFNβ−/− [3, 4]: 19.7 fold
- P4HA1 Fold Change: IFNβ−/− [3, 4]: 3.4 fold
- P8 Fold Change: IFNβ−/− [3, 4]: 1.3 fold
- PARP9 Fold Change: IFNβ−/− [3, 4]: 1.4 fold
- PELI1 Fold Change: IFNβ−/− [3, 4]: 4.3 fold
- PGF Fold Change: IFNβ−/− [3, 4]: 20.2 fold
- PLAU Fold Change: IFNβ−/− [3, 4]: 2.3 fold
- PPP1R15A Fold Change: IFNβ−/− [3, 4]: 1.6 fold
- PTX3 Fold Change: IFNβ−/− [3, 4]: 1.3 fold
- PVRL2 Fold Change: IFNβ−/− [3, 4]: 3.1 fold
- PVRL4 Fold Change: IFNβ−/− [3, 4]: 4.3 fold
- REL Fold Change: IFNβ−/− [3, 4]: 1.1 fold
- RGC32 Fold Change: IFNβ−/− [3, 4]: 3.0 fold
- RIPK2 Fold Change: IFNβ−/− [3, 4]: 1.3 fold
- RSAD2 Fold Change: IFNβ−/− [3, 4]: 7.8 fold
- SAP30 Fold Change: IFNβ−/− [3, 4]: 1.6 fold
- SAV1 Fold Change: IFNβ−/− [3, 4]: 2.6 fold
- SDC4 Fold Change: IFNβ−/− [3, 4]: 3.3 fold
- SECTM1 Fold Change: IFNβ−/− [3, 4]: 1.2 fold
- SLC7A2 Fold Change: IFNβ−/− [3, 4]: 1.8 fold
- SOAT1 Fold Change: IFNβ−/− [3, 4]: 1.9 fold
- SOCS1 Fold Change: IFNβ−/− [3, 4]: 3.4 fold
- STAT2 Fold Change: IFNβ−/− [3, 4]: 1.7 fold
- TGTP Fold Change: IFNβ−/− [3, 4]: 1.6 fold
- TLK2 Fold Change: IFNβ−/− [3, 4]: 1.4 fold
- TLR3 Fold Change: IFNβ−/− [3, 4]: 1.3 fold
- TMOD3 Fold Change: IFNβ−/− [3, 4]: 2.3 fold
- TNF Fold Change: IFNβ−/− [3, 4]: 1.4 fold
- TNFRSF11B Fold Change: IFNβ−/− [3, 4]: 100.0 fold
- TNFSF9 Fold Change: IFNβ−/− [3, 4]: 1.7 fold
- TOR1AIP1 Fold Change: IFNβ−/− [3, 4]: 1.3 fold
- TPST1 Fold Change: IFNβ−/− [3, 4]: 6.1 fold
- TREX1 Fold Change: IFNβ−/− [3, 4]: 5.2 fold
- TRIM21 Fold Change: IFNβ−/− [3, 4]: 2.6 fold
- TRIM25 Fold Change: IFNβ−/− [3, 4]: 2.3 fold
- TRIM34 Fold Change: IFNβ−/− [3, 4]: 1.9 fold
- USP18 Fold Change: IFNβ−/− [3, 4]: 1.0 fold
- VCAM1 Fold Change: IFNβ−/− [3, 4]: 1.6 fold
- ZBP1 Fold Change: IFNβ−/− [3, 4]: 4.2 fold
- ZNF313 Fold Change: IFNβ−/− [3, 4]: 1.5 fold
